Experimental findings from ChEMBL document CHEMBL5212743, “Selectivity Literature for EUbOPEN Chemogenomics Library wave 3” (2023) are described below.

Assay [1] addresses RAC-alpha serine/threonine-protein kinase (Homo sapiens, UniProt P31749). Nature of the assay: Selectivity interaction (KinomeScan (DiscoverX)) EUB0000750a AKT1. The note with it: at 1 µM.
Assay [2] deals with Synaptic vesicular amine transporter (Homo sapiens, UniProt Q05940). Briefly: Selectivity interaction (Enzyme and Receptor panel (MSD Pharma/Taiwan)) EUB0000750a SLC18A2.
The target of assay [3] is Phosphatidylinositol 4,5-bisphosphate 3-kinase catalytic subunit alpha isoform (Homo sapiens, UniProt P42336). Nature of the assay: Selectivity interaction (KinomeScan (DiscoverX)) EUB0000750a PIK3CA. The note with it: at 1 µM.
In assay [4] the target is Inhibitor of nuclear factor kappa-B kinase subunit epsilon (Homo sapiens) (UniProt Q14164). Nature of the assay: Selectivity interaction (KinomeScan (DiscoverX)) EUB0000750a IKBKE. The settings on record: at 1 µM.
The target of assay [5] is Epidermal growth factor receptor (Homo sapiens, UniProt P00533). Nature of the assay: Selectivity interaction (KinomeScan (DiscoverX)) EUB0000750a EGFR. The note with it: at 1 µM.
Chain of Epidermal growth factor receptor (P00533 whole entry): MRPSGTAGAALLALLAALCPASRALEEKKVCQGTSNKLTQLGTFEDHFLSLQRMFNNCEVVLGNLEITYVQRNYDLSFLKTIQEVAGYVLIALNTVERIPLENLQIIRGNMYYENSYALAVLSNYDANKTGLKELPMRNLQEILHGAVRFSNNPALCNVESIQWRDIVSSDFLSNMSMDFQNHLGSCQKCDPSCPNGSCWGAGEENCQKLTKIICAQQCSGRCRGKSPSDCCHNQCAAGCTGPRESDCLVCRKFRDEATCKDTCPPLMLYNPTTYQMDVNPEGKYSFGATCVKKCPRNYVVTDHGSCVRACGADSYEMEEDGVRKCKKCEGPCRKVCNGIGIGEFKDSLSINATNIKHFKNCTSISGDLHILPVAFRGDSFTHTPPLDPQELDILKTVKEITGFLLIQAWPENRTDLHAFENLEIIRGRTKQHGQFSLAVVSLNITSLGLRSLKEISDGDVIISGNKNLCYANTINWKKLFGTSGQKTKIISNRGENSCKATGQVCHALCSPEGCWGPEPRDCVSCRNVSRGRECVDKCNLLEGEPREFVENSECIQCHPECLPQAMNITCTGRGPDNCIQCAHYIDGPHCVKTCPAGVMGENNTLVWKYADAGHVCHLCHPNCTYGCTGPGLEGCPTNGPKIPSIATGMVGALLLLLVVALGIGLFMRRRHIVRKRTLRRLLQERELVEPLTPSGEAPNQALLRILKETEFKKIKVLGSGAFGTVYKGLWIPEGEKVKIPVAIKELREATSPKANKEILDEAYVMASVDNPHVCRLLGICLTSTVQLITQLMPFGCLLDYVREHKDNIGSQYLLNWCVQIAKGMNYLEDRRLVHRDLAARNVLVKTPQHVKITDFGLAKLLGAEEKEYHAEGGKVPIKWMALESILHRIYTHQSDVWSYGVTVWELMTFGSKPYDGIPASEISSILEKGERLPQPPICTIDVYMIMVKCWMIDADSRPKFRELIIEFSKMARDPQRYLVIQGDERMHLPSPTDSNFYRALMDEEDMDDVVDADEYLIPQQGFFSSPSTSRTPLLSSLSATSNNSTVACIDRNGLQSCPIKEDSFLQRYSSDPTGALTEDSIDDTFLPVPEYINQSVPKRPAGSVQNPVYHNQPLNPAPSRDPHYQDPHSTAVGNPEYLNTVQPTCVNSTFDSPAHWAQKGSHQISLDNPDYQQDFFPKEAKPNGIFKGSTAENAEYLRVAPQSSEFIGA
Assay [6] concerns the target T1, Serine/threonine-protein kinase LATS2 (Homo sapiens) (UniProt Q9NRM7).
T1 sequence (whole entry): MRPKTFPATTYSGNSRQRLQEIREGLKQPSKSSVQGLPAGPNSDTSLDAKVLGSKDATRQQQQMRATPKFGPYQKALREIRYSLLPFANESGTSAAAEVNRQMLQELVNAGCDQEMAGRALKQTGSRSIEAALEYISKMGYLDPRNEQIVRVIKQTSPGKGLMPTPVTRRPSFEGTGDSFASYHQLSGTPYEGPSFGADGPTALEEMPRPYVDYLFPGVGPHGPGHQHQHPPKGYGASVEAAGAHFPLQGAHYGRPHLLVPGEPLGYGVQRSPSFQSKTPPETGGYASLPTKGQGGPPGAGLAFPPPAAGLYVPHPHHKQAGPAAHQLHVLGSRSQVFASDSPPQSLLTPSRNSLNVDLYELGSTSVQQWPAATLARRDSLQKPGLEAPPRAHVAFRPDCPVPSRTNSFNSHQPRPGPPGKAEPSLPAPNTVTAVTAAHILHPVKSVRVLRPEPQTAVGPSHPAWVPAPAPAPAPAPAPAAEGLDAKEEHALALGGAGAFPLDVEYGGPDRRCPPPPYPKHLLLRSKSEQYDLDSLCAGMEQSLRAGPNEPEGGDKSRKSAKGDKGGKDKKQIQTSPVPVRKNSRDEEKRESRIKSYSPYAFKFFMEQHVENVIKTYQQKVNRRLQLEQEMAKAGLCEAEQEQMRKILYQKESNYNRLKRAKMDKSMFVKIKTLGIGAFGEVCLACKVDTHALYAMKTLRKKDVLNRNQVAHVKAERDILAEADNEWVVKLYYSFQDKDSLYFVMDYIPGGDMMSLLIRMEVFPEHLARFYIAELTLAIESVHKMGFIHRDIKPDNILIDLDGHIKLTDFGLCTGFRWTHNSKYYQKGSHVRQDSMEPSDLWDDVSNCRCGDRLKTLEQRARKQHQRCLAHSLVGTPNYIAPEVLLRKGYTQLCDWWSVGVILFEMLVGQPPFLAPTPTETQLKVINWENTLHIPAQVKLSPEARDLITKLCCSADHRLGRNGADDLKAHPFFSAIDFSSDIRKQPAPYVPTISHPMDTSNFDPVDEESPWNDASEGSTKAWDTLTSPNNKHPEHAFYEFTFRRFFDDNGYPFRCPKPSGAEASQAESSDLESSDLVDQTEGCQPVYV
Briefly: Selectivity interaction (KinomeScan (DiscoverX)) EUB0000750a LATS2. The settings on record: at 1 µM.

Assay [7] concerns the target Citron Rho-interacting kinase (Homo sapiens) (UniProt O14578). Nature of the assay: Selectivity interaction (KinomeScan (DiscoverX)) EUB0000750a CIT. The settings on record: at 1 µM.
For assay [8], the target named is T2, Mu-type opioid receptor (Homo sapiens, UniProt P35372). Briefly: Selectivity interaction (Eurofins Panlabs Discovery Services Panel (enzymes and receptors)) EUB0000234b OPRM1. The settings on record: at 10 µM.
T2 sequence (P35372 whole entry): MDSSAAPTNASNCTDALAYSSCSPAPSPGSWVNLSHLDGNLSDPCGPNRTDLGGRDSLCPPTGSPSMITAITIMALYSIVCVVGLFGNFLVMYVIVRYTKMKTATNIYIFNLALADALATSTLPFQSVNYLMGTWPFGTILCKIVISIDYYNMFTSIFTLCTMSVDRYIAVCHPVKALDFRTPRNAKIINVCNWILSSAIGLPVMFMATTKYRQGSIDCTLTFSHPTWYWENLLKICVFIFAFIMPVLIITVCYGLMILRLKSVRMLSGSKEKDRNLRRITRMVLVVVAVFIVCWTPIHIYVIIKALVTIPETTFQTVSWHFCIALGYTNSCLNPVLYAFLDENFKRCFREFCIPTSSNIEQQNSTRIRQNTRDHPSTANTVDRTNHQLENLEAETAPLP
Assay [9] deals with Muscarinic acetylcholine receptor M2 (Homo sapiens, UniProt P08172). Briefly: Selectivity interaction (GloSensor assay) EUB0000234b CHRM2.
For assay [10], the target named is T3, Histamine H3 receptor (Homo sapiens, UniProt Q9Y5N1). Briefly: Selectivity interaction (GloSensor assay) EUB0000234b HRH3.
T3 sequence (Q9Y5N1 whole entry, the tested form may be a part): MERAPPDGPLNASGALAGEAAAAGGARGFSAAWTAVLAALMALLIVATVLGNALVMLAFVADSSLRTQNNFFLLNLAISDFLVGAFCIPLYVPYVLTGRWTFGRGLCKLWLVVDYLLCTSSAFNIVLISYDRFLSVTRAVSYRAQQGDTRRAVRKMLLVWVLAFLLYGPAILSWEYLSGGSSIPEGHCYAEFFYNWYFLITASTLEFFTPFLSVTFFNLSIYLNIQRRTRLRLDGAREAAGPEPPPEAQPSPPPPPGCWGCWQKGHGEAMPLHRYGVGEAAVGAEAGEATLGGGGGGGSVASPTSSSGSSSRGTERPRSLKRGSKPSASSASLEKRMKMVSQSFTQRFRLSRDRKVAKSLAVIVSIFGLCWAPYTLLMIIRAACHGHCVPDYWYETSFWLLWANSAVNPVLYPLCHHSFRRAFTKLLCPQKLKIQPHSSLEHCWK
The target in assay [11] is PR domain zinc finger protein 8 (Homo sapiens) (UniProt Q9NQV8). Nature of the assay: Selectivity interaction (Methyltransferase panel (DSF assay)) EUB0000234b PRDM8. For orientation: In DSF a fluorescence change marks the thermal transition of the protein.
Assay [12] concerns the target Histone-lysine N-methyltransferase PRDM7 (Homo sapiens) (UniProt Q9NQW5). Briefly: Selectivity interaction (Methyltransferase panel (DSF assay)) EUB0000234b PRDM7.
In assay [13] the target is T4, Muscarinic acetylcholine receptor M2 (Homo sapiens) (UniProt P08172).
T4 sequence (whole entry): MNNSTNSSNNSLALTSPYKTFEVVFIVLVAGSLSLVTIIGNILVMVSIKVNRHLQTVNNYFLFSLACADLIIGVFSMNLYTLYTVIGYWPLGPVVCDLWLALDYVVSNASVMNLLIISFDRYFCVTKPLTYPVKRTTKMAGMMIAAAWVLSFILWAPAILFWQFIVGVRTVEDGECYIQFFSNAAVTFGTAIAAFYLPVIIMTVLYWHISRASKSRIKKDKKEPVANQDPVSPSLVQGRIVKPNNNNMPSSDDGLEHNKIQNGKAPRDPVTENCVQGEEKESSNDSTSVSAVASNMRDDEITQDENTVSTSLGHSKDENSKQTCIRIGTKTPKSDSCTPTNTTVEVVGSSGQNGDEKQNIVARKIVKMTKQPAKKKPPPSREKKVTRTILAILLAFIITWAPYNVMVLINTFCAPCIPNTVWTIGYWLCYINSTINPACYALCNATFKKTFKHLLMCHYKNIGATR
Briefly: Selectivity interaction (Eurofins Panlabs Discovery Services Panel (enzymes and receptors)) EUB0000234b CHRM2. The note with it: at 10 µM.

Assay [14] has as its target Histone-lysine N-methyltransferase MECOM (Homo sapiens) (UniProt Q03112). Briefly: Selectivity interaction (Methyltransferase panel (DSF assay)) EUB0000234b MECOM.
For assay [15], the target named is T2, Mu-type opioid receptor. Nature of the assay: Selectivity interaction (GloSensor assay) EUB0000234b OPRM1.
Assay [16] deals with T3, Histamine H3 receptor. Nature of the assay: Selectivity interaction (Eurofins Panlabs Discovery Services Panel (enzymes and receptors)) EUB0000234b HRH3. The settings on record: at 10 µM.
Assay [17] addresses Histone-lysine N-methyltransferase PRDM9 (Homo sapiens) (UniProt Q9NQV7). Briefly: Selectivity interaction (NanoLuciferase thermal shift assay (NALTSA, in HEK293 cells)) EUB0000234b PRDM9. Format: cell-based.
Assay [18] concerns the target Histone-lysine N-methyltransferase PRDM16 (Homo sapiens) (UniProt Q9HAZ2). Nature of the assay: Selectivity interaction (Methyltransferase panel (DSF assay)) EUB0000234b PRDM16.
Assay [19] deals with PR domain zinc finger protein 1 (Homo sapiens) (UniProt O75626). Briefly: Selectivity interaction (Methyltransferase panel (DSF assay)) EUB0000234b PRDM1.
Assay [20] has as its target PR domain-containing protein 11 (Homo sapiens) (UniProt Q9NQV5). Nature of the assay: Selectivity interaction (Methyltransferase panel (DSF assay)) EUB0000234b PRDM11.
Assay [21] deals with Adenosine receptor A2b (Homo sapiens, UniProt P29275). Nature of the assay: Selectivity interaction (GloSensor assay) EUB0000234b ADORA2B.
The target in assay [22] is Putative histone-lysine N-methyltransferase PRDM6 (Homo sapiens) (UniProt Q9NQX0). Nature of the assay: Selectivity interaction (Methyltransferase panel (DSF assay)) EUB0000234b PRDM6.
Chain of Putative histone-lysine N-methyltransferase PRDM6 (Homo sapiens) (Q9NQX0 whole entry, the tested form may be a part): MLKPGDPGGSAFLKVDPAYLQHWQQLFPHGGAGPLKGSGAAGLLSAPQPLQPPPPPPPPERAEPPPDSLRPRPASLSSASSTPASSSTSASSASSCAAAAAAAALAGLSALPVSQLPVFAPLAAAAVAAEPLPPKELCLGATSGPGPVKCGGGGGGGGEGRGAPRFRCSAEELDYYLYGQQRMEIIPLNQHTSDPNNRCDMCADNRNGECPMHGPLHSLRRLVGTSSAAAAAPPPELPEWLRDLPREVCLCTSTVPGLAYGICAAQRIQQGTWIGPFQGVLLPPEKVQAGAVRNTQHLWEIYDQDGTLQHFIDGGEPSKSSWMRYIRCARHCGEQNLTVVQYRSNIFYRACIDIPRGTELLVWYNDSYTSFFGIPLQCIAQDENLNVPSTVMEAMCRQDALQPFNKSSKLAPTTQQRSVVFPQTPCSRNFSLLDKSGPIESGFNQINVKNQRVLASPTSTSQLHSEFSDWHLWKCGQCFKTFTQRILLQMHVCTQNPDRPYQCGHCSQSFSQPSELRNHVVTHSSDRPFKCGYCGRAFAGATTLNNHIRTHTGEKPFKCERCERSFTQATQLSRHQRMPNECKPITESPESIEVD
The target of assay [23] is PR domain zinc finger protein 14 (Homo sapiens) (UniProt Q9GZV8). Nature of the assay: Selectivity interaction (Methyltransferase panel (DSF assay)) EUB0000234b PRDM14.
The target in assay [24] is PR domain zinc finger protein 10 (Homo sapiens) (UniProt Q9NQV6). Nature of the assay: Selectivity interaction (Methyltransferase panel (DSF assay)) EUB0000234b PRDM10.
In assay [25] the target is Histone-lysine N-methyltransferase PRDM9 (Homo sapiens) (UniProt Q9NQV7). Briefly: Selectivity interaction (Methyltransferase panel (DSF assay)) EUB0000234b PRDM9.
Chain of Histone-lysine N-methyltransferase PRDM9 (Homo sapiens) (Q9NQV7 whole entry, the tested form may be a part): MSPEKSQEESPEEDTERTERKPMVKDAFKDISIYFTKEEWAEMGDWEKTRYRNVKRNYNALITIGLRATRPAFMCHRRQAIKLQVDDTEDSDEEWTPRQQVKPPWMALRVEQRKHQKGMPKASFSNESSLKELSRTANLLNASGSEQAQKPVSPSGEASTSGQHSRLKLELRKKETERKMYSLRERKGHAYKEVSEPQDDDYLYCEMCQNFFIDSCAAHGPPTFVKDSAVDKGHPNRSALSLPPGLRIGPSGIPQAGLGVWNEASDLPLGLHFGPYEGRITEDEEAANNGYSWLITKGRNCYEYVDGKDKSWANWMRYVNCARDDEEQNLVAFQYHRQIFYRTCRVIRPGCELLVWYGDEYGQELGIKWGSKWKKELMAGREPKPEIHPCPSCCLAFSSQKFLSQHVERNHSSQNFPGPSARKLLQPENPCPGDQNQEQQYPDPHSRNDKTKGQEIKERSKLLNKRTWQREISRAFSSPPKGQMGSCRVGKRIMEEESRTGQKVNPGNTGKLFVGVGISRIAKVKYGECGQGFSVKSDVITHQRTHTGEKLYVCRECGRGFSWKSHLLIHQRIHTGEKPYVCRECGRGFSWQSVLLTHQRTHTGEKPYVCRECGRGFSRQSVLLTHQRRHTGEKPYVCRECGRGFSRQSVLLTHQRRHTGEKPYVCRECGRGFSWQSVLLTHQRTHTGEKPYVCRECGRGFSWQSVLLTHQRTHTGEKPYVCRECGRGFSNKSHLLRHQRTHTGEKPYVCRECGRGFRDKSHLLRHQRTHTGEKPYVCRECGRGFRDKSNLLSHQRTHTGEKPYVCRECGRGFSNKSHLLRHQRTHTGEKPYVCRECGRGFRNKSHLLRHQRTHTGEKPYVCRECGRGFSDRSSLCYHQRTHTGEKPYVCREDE
The target in assay [26] is PR domain zinc finger protein 2 (Homo sapiens) (UniProt Q13029). Briefly: Selectivity interaction (Methyltransferase panel (DSF assay)) EUB0000234b PRDM2.
The target in assay [27] is PR domain zinc finger protein 13 (Homo sapiens) (UniProt Q9H4Q3). Briefly: Selectivity interaction (Methyltransferase panel (DSF assay)) EUB0000234b PRDM13.
Assay [28] addresses PR domain zinc finger protein 12 (Homo sapiens) (UniProt Q9H4Q4). Nature of the assay: Selectivity interaction (Methyltransferase panel (DSF assay)) EUB0000234b PRDM12.
Assay [29] addresses Adenosine receptor A2b (Homo sapiens) (UniProt P29275). Nature of the assay: Selectivity interaction (Eurofins Panlabs Discovery Services Panel (enzymes and receptors)) EUB0000234b ADORA2B. The settings on record: at 10 µM.

Bounds are passed on as bounds.

Chain of Histone-lysine N-methyltransferase PRDM16 (Homo sapiens) (Q9HAZ2 whole entry, the tested form may be a part): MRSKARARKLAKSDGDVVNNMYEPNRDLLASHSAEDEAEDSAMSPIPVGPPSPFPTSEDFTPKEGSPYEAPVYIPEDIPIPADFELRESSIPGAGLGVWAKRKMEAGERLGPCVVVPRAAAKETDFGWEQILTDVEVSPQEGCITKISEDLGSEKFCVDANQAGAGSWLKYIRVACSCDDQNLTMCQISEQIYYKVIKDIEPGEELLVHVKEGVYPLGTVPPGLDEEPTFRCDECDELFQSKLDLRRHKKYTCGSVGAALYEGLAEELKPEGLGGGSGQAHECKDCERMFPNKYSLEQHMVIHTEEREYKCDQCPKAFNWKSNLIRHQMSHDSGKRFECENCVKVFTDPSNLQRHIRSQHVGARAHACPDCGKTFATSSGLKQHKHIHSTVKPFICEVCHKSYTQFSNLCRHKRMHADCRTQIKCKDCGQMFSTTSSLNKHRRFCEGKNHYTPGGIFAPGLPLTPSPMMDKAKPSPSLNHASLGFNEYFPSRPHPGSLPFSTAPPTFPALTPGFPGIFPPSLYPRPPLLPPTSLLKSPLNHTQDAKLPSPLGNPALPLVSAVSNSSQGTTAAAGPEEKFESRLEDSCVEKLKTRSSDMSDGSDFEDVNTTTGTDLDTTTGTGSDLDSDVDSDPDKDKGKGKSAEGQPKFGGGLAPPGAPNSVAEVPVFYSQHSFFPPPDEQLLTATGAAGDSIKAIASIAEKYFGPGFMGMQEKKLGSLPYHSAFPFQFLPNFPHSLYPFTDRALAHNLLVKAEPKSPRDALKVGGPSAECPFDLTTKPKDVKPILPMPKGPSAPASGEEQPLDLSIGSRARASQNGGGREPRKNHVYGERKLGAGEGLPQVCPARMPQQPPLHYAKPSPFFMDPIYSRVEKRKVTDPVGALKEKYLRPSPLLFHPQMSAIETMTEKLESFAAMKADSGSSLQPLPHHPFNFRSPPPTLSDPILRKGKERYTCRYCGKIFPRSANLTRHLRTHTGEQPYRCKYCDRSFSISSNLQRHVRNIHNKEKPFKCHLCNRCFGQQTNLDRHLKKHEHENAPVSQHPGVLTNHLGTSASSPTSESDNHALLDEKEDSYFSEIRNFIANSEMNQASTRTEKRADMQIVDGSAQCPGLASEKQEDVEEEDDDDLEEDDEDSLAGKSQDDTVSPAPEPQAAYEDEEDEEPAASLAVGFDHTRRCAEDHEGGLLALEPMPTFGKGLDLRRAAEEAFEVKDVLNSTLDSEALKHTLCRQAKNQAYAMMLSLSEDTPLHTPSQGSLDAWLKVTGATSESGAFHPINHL

Usually IC50 stands for the concentration at which inhibition is half-maximal. Consider `O=S(=O)(NC1CCC(c2cc(F)ccc2F)(S(=O)(=O)c2ccc(Cl)cc2)CC1)C(F)(F)F` (centres undefined) [MRK-560], for which the % of control in assay [1] was found to be 5%; in assay [3] it was 36%; in assay [4], 0%; in assay [5], 0%; in assay [6], 0%; in assay [7], 0%. The same compound returned an IC50 in assay [2] of 0.213 µM.

The term EC50 denotes the concentration giving half of the maximal effect. `COc1cc(OC)cc(-c2noc(N3CCN(C)C4(CCN(c5ccnc(C)c5)CC4)C3)n2)c1`: the % of inhibition in assay [8], in assay [13], in assay [16] and in assay [29] was more than 50% in each case. The EC50 in [9], in assay [10], in assay [15] and in assay [21] was more than 10 µM in each case. For the same compound, the dTm in assay [11] is less than 2 K; in assay [12], 5 K; in assay [14] it was less than 2 K; in assay [17], 2 K; in assay [18], less than 2 K; in assay [19], less than 2 K. Moreover, the dTm in [20] is less than 2 K; in assay [22], less than 2 K; in assay [23], less than 2 K; in assay [24], less than 2 K; in [25], 5.2 K; in [26] it was less than 2 K. Besides, the dTm in assay [27] and in assay [28] was less than 2 K throughout.
